# According to article PMC11059415 (Heliyon, 2024):
# Target: T1, Sp-Fld (Sp-flavodoxin) (Streptococcus pneumoniae, UniProt Q8DPG4)
# T1 sequence (Q8DPG4 1-147): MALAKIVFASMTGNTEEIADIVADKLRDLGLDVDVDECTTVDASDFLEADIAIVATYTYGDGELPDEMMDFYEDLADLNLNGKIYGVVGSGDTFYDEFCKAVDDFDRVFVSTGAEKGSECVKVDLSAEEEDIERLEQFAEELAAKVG
# Assay: isothermal titration calorimetry
# Assay type: binding
compound,measurement,value
"N[C@@H](Cc1cc(I)c(Oc2cc(I)c(O)c(I)c2)c(I)c1)C(=O)O [Cp1, L-thyroxine]",Kd,2.5 ± 0.4 µM
